Experimental data as given in patent US6569864B1, “Pharmaceutical agents containing acyclovir, fusaric acid and derivatives thereof” (Novactyl, Inc., priority 2001, dated 2003).
Values after ≈ are worked out from the molar mass of the structure shown. Read-outs that look alike come from different tables or passages of the source.

Columns and labels:
[1] = cytotoxicity by neutral red dye uptake assay; format: cell-based; conditions: African green monkey
Description: (§1) The cytotoxic effects of picolinic acid and fusaric acid were examined on Vero cells using neutral red dye uptake assay. Confluent Vero cells were cultured in a medium containing various doses of picolinic acid for two days. The testing concentrations were 0, 10, 100, 250, 500 and 1000 μg/ml for picolinic acid and 0, 1, 10, 50, 100 and 500 μg/ml for fusaric acid. Culture medium was removed from confluent Vero cells in a 96-well plate by pump. The cells were then washed once with 200 μl of PBS. 200 μl culture medium containing varying concentrations of either picolinic acid or fusaric acid was added to each well. The cells were then incubated with […] at 37° C. for two days. At the end of incubation, the medium was removed and the cells washed with PBS. 200 μl of 0.01% neutral red in PBS was subsequently added to each well and incubated at 37° C. for 30 minutes The dye was then removed and the cells washed twice with 200 μl PBS per well. The dye was extracted by addition of 200 μl of 50% ethanol/1% glacial acetic acid in PBS to each well and incubated at room temperature for 15 minutes with gentle shaking at 120-150 rpm. The absorbance at 550 nm was read on an enzyme-linked immunosorbent assay (ELISA) reader. The toxicity profiles of picolinic acid and fusaric acid on Vero cells analyzed from optical absorbance readings are shown in Table 2.

[2] = tested on: Vero cells; assay: cytotoxicity by neutral red dye uptake assay; format: cell-based
Description: as §1

[3] = tested on: HSV-1; assay: plaque reduction assay, HSV-1 in Vero cells; format: cell-based; conditions: for cell death observed under microscope: HSV-1 infected Vero cells
Description: (§2) Herpes simplex virus standard strains G (HSV-2) and F (HSV-1) were used in each Example. Virus input for a 6-well plate was 200 pfu/well. HSV susceptible cell line, Vero cells, were used in the virus yield reduction assay. The culture medium for Vero cells is 5% Minimum Essential Medium GIBCO/BRL (MEM) supplemented with 5% fetal bovine serum (200 U/ml penicillin and 200 μg/ml streptomycin).
(§3) To examine the efficacy of fusaric acid on HSV-1 and HSV-2, the susceptible cells were infected with either HSV-1 or HSV-2, then incubated with fusaric acid at concentrations of 0, 1, 10, 30, 60, and 100 μg/ml. The antiviral effect was then determined by plaque reduction assay.
(§4) Confluent cells were washed with PBS and infected with either HSV-1 or HSV-2 (200 pfu/well) for 1 hour at 37° C. The cells were tilled every 20 minutes. After viral inoculum was removed, infected cells were washed with PBS and overlaid with 0.5% methylcellulose in culture medium (equal volume of 1% methylcellulose mixed with 2 times culture medium) containing different doses of testing compounds. The cells were incubated at 37° C. for 2 days for HSV-2 infection and 3 days for HSV-1.
(§5) After plaque size was adequate, the cells were fixed with 20% formalin for 20 minutes and stained with 0.5% crystal violet for 20 minutes. The dye was removed by washing with tap water and left to dry in a fume hood. The plaques were then counted. The experiment was repeated.
(§6) Mean plaque counts in test wells were compared with mean plaque counts in wells not containing the compound (control wells). The antiviral effects of fusaric acid on HSV-1 and HSV-2 are summarized in Table 1 and the antiviral effect of fusaric acid on HSV as determined by plaque reduction assay is shown in FIG. 1.
(§7) EC90-100 (effective concentration giving 90-100% plaque reduction) was approximately 30 μg/ml for both HSV-1 and HSV-2. Control was calculated as the mean plaque count in the drug treated wells divided by the mean plaque count in the control wells. The concentrations giving a 50% reduction in the plaque count of the inoculum (EC50) was then calculated using computer software.
(§8) To examine the efficacy of the combination of fusaric acid and acyclovir on HSV-1 and HSV-2, the plaque reduction assay technique described in Example 1 was employed. The susceptible cells were infected with HSV-1 then incubated with a combination of fusaric acid at concentrations of 0, 1, 10, 30 and 60 μg/ml and […] acyclovir. Similarly, other susceptible cells were infected with HSV-2 then incubated with a combination of […] at concentrations of 0, 1, 10, 30, and 60 μg/ml and 6.1 μM acyclovir. A control was used in each instance, which comprised neither picolinic acid nor acyclovir.

[4] = tested on: HSV-2; assay: plaque reduction assay, HSV-2 in Vero cells; format: cell-based; conditions: for cell death observed under microscope: HSV-2 infected Vero cells
Description: as §2, §3, §4, §5, §6, §7, §8

[5] = tested on: herpes labialis; conditions: cited from earlier work

O=C(O)c1ccccn1 [Picolinic acid, reference compound]
CC50 at 2 days [1]: ~800 µg/mL (≈ 6.5 mM)
Toxicity (% of control) ([2]; African green monkey, 2 days, 10 μg/ml): 105 % of control
Toxicity (% of control) ([2]; African green monkey, 2 days, 100 μg/ml): 95 % of control
Toxicity (% of control) ([2]; African green monkey, 2 days, 250 μg/ml): 70 % of control
Toxicity (% of control) ([2]; African green monkey, 2 days, 500 μg/ml): 57 % of control
Toxicity (% of control) ([2]; African green monkey, 2 days, 1000 μg/ml): 45 % of control

CCCCc1ccc(C(=O)O)nc1 [Fusaric acid]
effect on HSV-1 (in words) ([3]; 10 μg/ml fusaric acid alone): no effect
EC90 ([3]; Human alphaherpesvirus 1, Vero, read-out: EC90-100 (effective concentration giving 90-100% plaque reduction)): ~30 µg/mL
HSV-1 plaque count (% of control) ([3]; fusaric acid 1 μg/ml): 101 % of control
HSV-1 plaque count (% of control) ([3]; fusaric acid 10 μg/ml): 105 % of control
HSV-1 plaque count (% of control) ([3]; fusaric acid 30 μg/ml): 0 % of control
HSV-1 plaque count (% of control) ([3]; fusaric acid 60 μg/ml): 0 % of control
cell death observed under microscope ([3]; fusaric acid 60 μg/ml): + (˜20% cell death observed under microscope)
HSV-1 plaque count (% of control) ([3]; fusaric acid 100 μg/ml): 0 % of control
cell death observed under microscope ([3]; fusaric acid 100 μg/ml): ++ (˜50% cell death observed under microscope)
effect on HSV-2 (in words) ([4]; 10 μg/ml fusaric acid alone): no effect
EC90 ([4]; Human alphaherpesvirus 2, Vero, read-out: EC90-100 (effective concentration giving 90-100% plaque reduction)): ~30 µg/mL
HSV-2 plaque count (% of control) ([4]; fusaric acid 1 μg/ml): 103 % of control
HSV-2 plaque count (% of control) ([4]; fusaric acid 10 μg/ml): 101 % of control
HSV-2 plaque count (% of control) ([4]; fusaric acid 30 μg/ml): 0 % of control
HSV-2 plaque count (% of control) ([4]; fusaric acid 60 μg/ml): 0 % of control
cell death observed under microscope ([4]; fusaric acid 60 μg/ml): + (˜20% cell death observed under microscope)
HSV-2 plaque count (% of control) ([4]; fusaric acid 100 μg/ml): 0 % of control
cell death observed under microscope ([4]; fusaric acid 100 μg/ml): ++ (˜50% cell death observed under microscope)
CC50 at 2 days ([1]; Vero cells, read-out: cytotoxic concentration giving 50% of cell death (CC50)): ~100 µg/mL (≈ 0.558 mM)
Toxicity (% of control) ([2]; 1 μg/ml, Vero cells, two days): 101 % of control
Toxicity (% of control) ([2]; 10 μg/ml, Vero cells, two days): 76 % of control
Toxicity (% of control) ([2]; 50 μg/ml, Vero cells, two days): 55 % of control
Toxicity (% of control) ([2]; 100 μg/ml, Vero cells, two days): 49 % of control
Toxicity (% of control) ([2]; 500 μg/ml, Vero cells, two days): 16 % of control

Nc1nc2c(ncn2COCCO)c(=O)[nH]1 [Acyclovir, 2-amino-1,9-dihydro-9-[(2-hydroxyethoxy)metyl]-6H-purin-6-one]
HSV-1 (% of control) ([3]; acyclovir 1.75 μM, fusaric acid 0 μg/ml): 62.9 % of control
HSV-2 (% of control) ([4]; acyclovir 6.1 μM, fusaric acid 0 μg/ml): 42.9 % of control
efficacy against herpes labialis and herpes genitalis (in words) ([5]; topical formulation): not effective

Nc1nc2c(ncn2CCC(CO)CO)c(=O)[nH]1 [denavir]
reduction of the median duration of the illness ([5]; herpes labialis, typically lasting about 6 to 7 days): 6 h
